ChEMBL document CHEMBL3774308, “KATching-Up on Small Molecule Modulators of Lysine Acetyltransferases” (J Med Chem, 2016)
pIC50: −log10 of the molar value.

What was measured:
[1] = target: T1, Histone acetyltransferase p300 (Homo sapiens, UniProt Q09472); test: Inhibition of recombinant p300 (unknown origin) expressed in baculovirus expression system using histone substrate at 50 uM after 10 mins by liquid scintillation counting method in presence of [3H]acetyl-CoA relative to control
[2] = target: T2, Histone acetyltransferase KAT2B (Homo sapiens, UniProt Q92831); test: Inhibition of recombinant PCAF (unknown origin) expressed in baculovirus expression system using histone substrate at 50 uM after 10 mins by liquid scintillation counting method in presence of [3H]acetyl-CoA relative to control
Target sequence in this assay (Q92831 whole entry, looked up): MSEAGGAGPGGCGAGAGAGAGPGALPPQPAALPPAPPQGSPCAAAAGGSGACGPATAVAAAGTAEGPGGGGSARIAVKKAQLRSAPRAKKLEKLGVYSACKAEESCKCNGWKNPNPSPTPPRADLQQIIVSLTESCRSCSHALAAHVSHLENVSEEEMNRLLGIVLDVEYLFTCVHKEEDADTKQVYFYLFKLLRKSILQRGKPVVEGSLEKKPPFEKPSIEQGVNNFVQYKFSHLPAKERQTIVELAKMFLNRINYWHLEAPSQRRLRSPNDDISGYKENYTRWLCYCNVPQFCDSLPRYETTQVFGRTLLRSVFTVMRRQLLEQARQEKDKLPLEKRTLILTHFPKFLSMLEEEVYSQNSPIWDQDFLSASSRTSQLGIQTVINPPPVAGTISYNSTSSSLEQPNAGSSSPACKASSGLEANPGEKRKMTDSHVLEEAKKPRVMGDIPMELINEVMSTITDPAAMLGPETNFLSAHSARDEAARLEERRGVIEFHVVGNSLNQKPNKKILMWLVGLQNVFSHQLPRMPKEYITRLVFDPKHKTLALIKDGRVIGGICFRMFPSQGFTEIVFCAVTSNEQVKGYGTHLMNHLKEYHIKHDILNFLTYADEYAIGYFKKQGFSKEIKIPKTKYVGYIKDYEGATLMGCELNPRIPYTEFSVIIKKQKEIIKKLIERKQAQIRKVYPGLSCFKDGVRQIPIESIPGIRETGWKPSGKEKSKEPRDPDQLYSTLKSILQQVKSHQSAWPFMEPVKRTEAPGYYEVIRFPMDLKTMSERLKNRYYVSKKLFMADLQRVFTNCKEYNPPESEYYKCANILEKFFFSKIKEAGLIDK

[3] = target: T1, Histone acetyltransferase p300; test: Inhibition of recombinant GST-tagged p300 (unknown origin) using histone H4 peptide substrate assessed as reduction in NADH formation by spectrophotometric analysis
[4] = target: CREB-binding protein (Homo sapiens, UniProt Q92793); test: Inhibition of recombinant GST-tagged CBP (unknown origin) using histone H4 peptide substrate assessed as reduction in NADH formation by spectrophotometric analysis
[5] = target: T2, Histone acetyltransferase KAT2B; test: Inhibition of recombinant PCAF (unknown origin) using histone H4 peptide substrate assessed as reduction in NADH formation by spectrophotometric analysis
Target sequence in this assay (Q92831 whole entry): as the sequence (Q92831 whole entry, looked up) above

[6] = target: T3, Histone acetyltransferase KAT5 (Homo sapiens, UniProt Q92993); test: Inhibition of recombinant TIP60 (unknown origin) using histone H4 peptide substrate assessed as reduction in NADH formation by spectrophotometric analysis
Target sequence in this assay (Q92993 whole entry, the tested form may be a part): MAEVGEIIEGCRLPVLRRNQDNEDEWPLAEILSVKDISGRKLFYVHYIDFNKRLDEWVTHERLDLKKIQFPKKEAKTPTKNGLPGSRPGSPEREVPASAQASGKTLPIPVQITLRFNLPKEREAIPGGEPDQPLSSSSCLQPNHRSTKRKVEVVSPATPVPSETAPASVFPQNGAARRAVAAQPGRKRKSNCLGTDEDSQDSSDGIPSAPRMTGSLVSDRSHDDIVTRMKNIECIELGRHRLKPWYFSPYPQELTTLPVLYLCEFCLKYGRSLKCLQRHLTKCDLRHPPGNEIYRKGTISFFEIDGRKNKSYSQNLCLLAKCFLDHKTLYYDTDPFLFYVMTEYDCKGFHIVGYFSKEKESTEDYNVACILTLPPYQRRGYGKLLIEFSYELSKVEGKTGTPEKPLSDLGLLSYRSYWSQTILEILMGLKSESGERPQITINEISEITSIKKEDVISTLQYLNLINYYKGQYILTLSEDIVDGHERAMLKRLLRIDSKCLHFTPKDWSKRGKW

[7] = target: Histone acetyltransferase KAT2A (Homo sapiens, UniProt Q92830); test: Inhibition of recombinant human GCN5 catalytic domain (497 to 663 residues) expressed in Escherichia coli using histone H3 (5 to 23 residues) as substrate at 800 uM after 1 hr by liquid scintillation counting method in presence of [3H]acetyl-CoA relative to control
Chain of Histone acetyltransferase KAT2A (Q92830 2-837 limits assumed): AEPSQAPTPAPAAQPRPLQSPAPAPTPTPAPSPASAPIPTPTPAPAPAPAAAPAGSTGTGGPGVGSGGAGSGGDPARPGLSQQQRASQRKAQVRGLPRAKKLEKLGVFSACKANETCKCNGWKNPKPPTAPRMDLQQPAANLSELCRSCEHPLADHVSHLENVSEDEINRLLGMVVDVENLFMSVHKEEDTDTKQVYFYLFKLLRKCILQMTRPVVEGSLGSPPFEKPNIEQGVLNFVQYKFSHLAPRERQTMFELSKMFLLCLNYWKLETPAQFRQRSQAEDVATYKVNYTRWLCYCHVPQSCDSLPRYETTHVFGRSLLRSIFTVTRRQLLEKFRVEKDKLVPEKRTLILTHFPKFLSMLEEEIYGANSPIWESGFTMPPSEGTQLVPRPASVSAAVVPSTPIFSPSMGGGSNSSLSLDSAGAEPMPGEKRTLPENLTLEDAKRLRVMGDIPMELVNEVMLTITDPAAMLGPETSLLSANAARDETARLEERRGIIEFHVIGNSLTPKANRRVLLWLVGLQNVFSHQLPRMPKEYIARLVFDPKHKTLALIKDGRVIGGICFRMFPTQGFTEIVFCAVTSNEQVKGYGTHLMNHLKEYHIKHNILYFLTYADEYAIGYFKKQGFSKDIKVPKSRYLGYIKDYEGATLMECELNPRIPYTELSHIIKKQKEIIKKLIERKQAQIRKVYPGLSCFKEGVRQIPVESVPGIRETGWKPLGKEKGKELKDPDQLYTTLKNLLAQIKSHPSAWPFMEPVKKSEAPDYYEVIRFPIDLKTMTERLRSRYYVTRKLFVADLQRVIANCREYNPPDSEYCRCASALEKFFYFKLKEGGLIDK

[8] = target: T2, Histone acetyltransferase KAT2B; test: Inhibition of recombinant human PCAF catalytic domain (492 to 658 residues) expressed in Escherichia coli using histone H3 (5 to 23 residues) as substrate at 800 uM after 1 hr by liquid scintillation counting method in presence of [3H]acetyl-CoA relative to control
Target sequence in this assay (Q92831 whole entry, looked up): as the sequence (Q92831 whole entry, looked up) above

[9] = target: T1, Histone acetyltransferase p300; test: Inhibition of full length recombinant His6-tagged p300 (unknown origin) expressed in baculovirus expression system using histone substrate after 10 mins by liquid scintillation counting method in presence of [3H]acetyl-CoA
[10] = target: T2, Histone acetyltransferase KAT2B; test: Inhibition of recombinant PCAF (unknown origin) expressed in baculovirus expression system using histone substrate after 10 mins by liquid scintillation counting method in presence of [3H]acetyl-CoA
Target sequence in this assay (Q92831 whole entry): as the sequence (Q92831 whole entry, looked up) above

[11] = target: T1, Histone acetyltransferase p300; test: Inhibition of full length recombinant human FLAG-tagged p300 expressed in baculovirus expression system using histone substrate incubated for 10 mins by radiometric gel assay
[12] = target: T2, Histone acetyltransferase KAT2B; test: Inhibition of full length recombinant human FLAG-tagged PCAF expressed in baculovirus expression system using histone substrate incubated for 10 mins by radiometric gel assay
Target sequence in this assay (Q92831 whole entry): as the sequence (Q92831 whole entry, looked up) above

[13] = target: T1, Histone acetyltransferase p300; test: Inhibition of recombinant full length p300 (unknown origin) using N-terminal H4-20 peptide substrate incubated for 7 mins by radiometric gel assay in presence of [14C]acetyl-CoA
[14] = target: T1, Histone acetyltransferase p300; test: Inhibition of human recombinant C-terminal GST-tagged p300 (1195 to 1673 residues) expressed in competent Escherichia coli DH5alpha cells using histone substrate after 30 mins by scintillation counting method in presence of [3H]acetyl-CoA
[15] = target: T1, Histone acetyltransferase p300; test: Activation of full length recombinant human His6-tagged p300 expressed in baculovirus infected Sf21 cells using N-terminal H3 peptide substrate at 275 uM after 10 mins by radiometric filter binding assay in presence of [3H]acetyl-CoA relative to control
[16] = target: T1, Histone acetyltransferase p300; test: Inhibition of human recombinant p300 catalytic domain (1284 to 1673 residues) expressed in Escherichia coli using H4-8 peptide substrate by radiometric assay in presence of [3H]acetyl-CoA
[17] = target: T1, Histone acetyltransferase p300; test: Inhibition of full length recombinant His6-tagged p300 (unknown origin) expressed in baculovirus expression system using histone substrate at 25 uM after 10 mins by liquid scintillation counting method in presence of [3H]acetyl-CoA relative to control
[18] = target: T2, Histone acetyltransferase KAT2B; test: Inhibition of full length recombinant FLAG-tagged PCAF (unknown origin) expressed in baculovirus expression system using histone substrate after 10 mins by liquid scintillation counting method in presence of [3H]acetyl-CoA
Target sequence in this assay (Q92831 whole entry): as the sequence (Q92831 whole entry, looked up) above

[19] = target: T3, Histone acetyltransferase KAT5; test: Inhibition of TIP60 (unknown origin) expressed in bacterial system using histone substrate at 25 uM after 10 mins by liquid scintillation counting method in presence of [3H]acetyl-CoA relative to control
Target sequence in this assay (Q92993 whole entry, looked up, the tested form may be a part): as the sequence (Q92993 whole entry, the tested form may be a part) above

T1 sequence (Q09472 whole entry): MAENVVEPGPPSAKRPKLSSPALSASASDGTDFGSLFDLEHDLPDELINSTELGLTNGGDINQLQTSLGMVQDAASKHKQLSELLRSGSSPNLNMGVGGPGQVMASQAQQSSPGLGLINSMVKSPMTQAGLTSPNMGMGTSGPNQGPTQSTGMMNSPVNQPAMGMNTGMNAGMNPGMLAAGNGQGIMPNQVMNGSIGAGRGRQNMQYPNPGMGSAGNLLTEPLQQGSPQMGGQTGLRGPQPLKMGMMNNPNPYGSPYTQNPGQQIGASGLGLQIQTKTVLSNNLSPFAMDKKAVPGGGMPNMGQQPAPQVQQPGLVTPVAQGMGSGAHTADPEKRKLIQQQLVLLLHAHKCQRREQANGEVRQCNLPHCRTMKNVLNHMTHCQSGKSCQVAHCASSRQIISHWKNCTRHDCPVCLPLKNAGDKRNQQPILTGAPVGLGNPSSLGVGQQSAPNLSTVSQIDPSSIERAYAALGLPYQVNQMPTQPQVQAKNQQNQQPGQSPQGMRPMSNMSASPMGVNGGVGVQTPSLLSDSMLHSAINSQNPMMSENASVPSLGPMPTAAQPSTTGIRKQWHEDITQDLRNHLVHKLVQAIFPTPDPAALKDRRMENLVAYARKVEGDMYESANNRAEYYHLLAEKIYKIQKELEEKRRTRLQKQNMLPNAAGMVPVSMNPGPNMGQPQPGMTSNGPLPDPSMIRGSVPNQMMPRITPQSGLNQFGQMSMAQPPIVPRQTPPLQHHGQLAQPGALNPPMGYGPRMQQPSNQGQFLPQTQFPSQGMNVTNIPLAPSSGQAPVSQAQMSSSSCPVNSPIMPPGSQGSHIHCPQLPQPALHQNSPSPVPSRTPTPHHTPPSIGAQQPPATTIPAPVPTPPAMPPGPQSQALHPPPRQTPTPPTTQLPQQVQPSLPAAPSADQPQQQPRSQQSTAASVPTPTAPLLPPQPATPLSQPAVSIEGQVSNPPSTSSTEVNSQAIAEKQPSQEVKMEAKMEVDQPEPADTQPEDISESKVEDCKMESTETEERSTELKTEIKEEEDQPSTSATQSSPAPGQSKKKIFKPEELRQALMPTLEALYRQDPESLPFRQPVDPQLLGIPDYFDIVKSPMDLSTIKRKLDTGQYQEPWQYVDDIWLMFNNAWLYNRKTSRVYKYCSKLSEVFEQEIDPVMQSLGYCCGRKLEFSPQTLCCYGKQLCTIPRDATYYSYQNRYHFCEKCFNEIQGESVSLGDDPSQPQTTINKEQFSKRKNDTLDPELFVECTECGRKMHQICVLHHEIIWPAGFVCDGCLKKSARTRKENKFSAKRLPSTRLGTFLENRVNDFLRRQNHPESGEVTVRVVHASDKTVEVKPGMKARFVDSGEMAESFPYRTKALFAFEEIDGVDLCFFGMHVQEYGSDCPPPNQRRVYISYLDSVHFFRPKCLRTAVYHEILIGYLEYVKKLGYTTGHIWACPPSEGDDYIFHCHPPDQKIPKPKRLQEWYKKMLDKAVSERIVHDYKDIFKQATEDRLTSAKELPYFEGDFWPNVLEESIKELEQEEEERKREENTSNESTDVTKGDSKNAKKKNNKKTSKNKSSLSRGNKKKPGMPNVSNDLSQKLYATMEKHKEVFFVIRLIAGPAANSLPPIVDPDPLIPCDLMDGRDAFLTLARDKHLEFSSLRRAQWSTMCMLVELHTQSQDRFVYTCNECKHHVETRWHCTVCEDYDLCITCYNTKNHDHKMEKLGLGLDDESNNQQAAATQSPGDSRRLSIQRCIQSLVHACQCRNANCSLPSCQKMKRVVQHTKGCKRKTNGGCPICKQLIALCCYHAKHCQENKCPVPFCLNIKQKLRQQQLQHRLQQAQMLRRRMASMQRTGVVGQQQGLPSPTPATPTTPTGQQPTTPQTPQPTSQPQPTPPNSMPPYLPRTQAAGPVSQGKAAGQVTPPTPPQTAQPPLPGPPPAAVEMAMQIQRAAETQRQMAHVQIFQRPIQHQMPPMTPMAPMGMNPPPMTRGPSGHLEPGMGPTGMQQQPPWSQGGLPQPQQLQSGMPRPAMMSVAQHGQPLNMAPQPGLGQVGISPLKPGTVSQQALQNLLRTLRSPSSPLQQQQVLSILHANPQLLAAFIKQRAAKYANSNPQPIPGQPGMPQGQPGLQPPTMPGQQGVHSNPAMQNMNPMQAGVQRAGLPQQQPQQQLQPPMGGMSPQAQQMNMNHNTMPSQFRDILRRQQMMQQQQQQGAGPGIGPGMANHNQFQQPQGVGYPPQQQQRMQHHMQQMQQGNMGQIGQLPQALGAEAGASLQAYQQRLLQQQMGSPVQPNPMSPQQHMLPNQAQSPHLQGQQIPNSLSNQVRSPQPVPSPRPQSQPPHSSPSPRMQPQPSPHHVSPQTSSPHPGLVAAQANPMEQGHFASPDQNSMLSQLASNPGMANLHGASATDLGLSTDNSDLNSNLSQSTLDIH

COc1cc(/C=C/c2cc(/C=C/c3ccc(O)c(OC)c3)n(-c3ccc(C(=O)O)cc3)n2)ccc1O
inhibition [1]: > 50%
inhibition [2]: > 50%

O=C(O[C@@H]1Cc2c(O)cc(O)cc2O[C@@H]1c1cc(O)c(O)c(O)c1)c1cc(O)c(O)c(O)c1 [EPIGALOCATECHIN GALLATE]
pIC50 [3]: 4.52
pIC50 [4]: 4.30
pIC50 [5]: 4.22
pIC50 [6]: 4.15

CC1CC/C(=N/Nc2nc(-c3ccc(Cl)cc3)cs2)C1 (configuration not stated)
inhibition [7]: 40%
inhibition [8]: 40%

CC1=CC(=O)c2c(O)cccc2C1=O [PLUMBAGIN]
pIC50 [9]: 4.70
pIC50 [10]: 4.30

CC(=O)N[C@@H](CCCCNC(=O)CSCCNC(=O)CCNC(=O)[C@H](O)C(C)(C)COP(=O)(O)OP(=O)(O)OC[C@H]1O[C@@H](n2cnc3c(N)ncnc32)[C@H](O)[C@@H]1OP(=O)(O)O)C(N)=O
pIC50 [11]: 6.30
pIC50 [12]: 3.70
pIC50 [13]: 7.30
pIC50 [14]: 8.49

CCCCCCCCCCCCCCCc1cccc(OCC)c1C(=O)Nc1ccc(Cl)c(C(F)(F)F)c1
Emax [15]: 400%

CC(C)(C)OC(=O)NCCCCCNC(=O)CSCCNC(=O)CCNC(=O)[C@H](O)C(C)(C)COP(=O)(O)OP(=O)(O)OC[C@H]1O[C@@H](n2cnc3c(N)ncnc32)[C@H](O)[C@@H]1OP(=O)(O)O
pIC50 [16]: 7.15

N=C(N)NCCC[C@@H]1NC(=O)/C(=C/c2ccc(O)c(OCC[C@H](NC(=O)C[C@](O)(CC(=O)N[C@@H](CC(=O)O)C(=O)O)C(=O)O)C(=O)O)c2)NC1=O
pIC50 [14]: 7.96

CNC(=O)[C@H](C)NC(=O)[C@H](CCCNC(=N)N)NC(=O)[C@@H](NC(=O)[C@H](CCCCN)NC(=O)[C@H](CCC(N)=O)NC(=O)[C@@H](NC(=O)[C@H](C)NC(=O)[C@H](CCCNC(=N)N)NC(=O)[C@H](CC(C)C)NC(=O)[C@H](CO)NC(=O)[C@@H](NC(=O)CNC(=O)CNC(=O)N[C@H](CCCCNC(=O)CSCCNC(=O)CCNC(=O)[C@@H](O)C(C)(C)COP(=O)(O)OP(=O)(O)OC[C@@H]1O[C@H](n2cnc3c(N)ncnc32)[C@@H](O)[C@H]1OP(=O)(O)O)C(=O)N[C@@H](C)C(=O)N1CCC[C@@H]1C(=O)N[C@H](CCCNC(=N)N)C(=O)N[C@H](CCCCN)C(=O)N[C@H](CCC(N)=O)C(=O)N[C@@H](CC(C)C)C(=O)O)[C@H](C)O)[C@H](C)O)[C@H](C)O
pIC50 [11]: 3.70
pIC50 [12]: 6.52

CCCCCCCCCCCC1=C(O)C(=O)C=C(O)C1=O [EMBELIN]
inhibition [17]: 75%
pIC50 [18]: 5.14
inhibition [19]: 75%
